Assays:
[1] = target: T1, Human CD73 (amino acid residues 27-549) (Homo sapiens, UniProt P21589); test: CD73 enzymatic assay (luciferase-based indirect assay, CellTiter-Glo); format: biochemical; conditions: 0.4 nM CD73, 150 μM AMP, 1 hour at room temperature
T1 construct: Human CD73 (amino acid residues 27-549); His tag (N); made in house; host or cells: E. coli
T1 sequence (P21589 27-549): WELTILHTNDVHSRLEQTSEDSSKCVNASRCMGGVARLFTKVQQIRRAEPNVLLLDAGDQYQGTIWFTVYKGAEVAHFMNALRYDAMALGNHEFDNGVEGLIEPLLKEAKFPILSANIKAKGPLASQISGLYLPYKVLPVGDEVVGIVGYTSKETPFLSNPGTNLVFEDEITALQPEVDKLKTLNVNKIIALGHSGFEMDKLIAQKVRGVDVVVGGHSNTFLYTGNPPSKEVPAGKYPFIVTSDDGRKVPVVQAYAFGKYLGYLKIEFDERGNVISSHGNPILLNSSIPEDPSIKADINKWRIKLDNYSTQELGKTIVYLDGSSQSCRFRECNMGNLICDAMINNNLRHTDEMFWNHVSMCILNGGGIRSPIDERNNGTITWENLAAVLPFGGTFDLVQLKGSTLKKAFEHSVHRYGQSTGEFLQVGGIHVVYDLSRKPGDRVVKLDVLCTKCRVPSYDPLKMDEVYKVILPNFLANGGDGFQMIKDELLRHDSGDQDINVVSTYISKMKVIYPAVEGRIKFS
How it was run: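 His-tagged human CD73 (27-549) from E. coli, 0.4 nM, with 150 μM AMP in 50 mM HEPES pH 7.4, 0.01% Tween 20; 1 h at room temperature. AMP remaining read by CellTiter-Glo 2.0 luminescence with 1 μM final ATP after 30 min. IC50 from nonlinear regression of % inhibition.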

human CD73 = target: T2, human CD73 (Homo sapiens, UniProt P21589); test: Inhibitor activity against CD73 in cell based assay (CD73 expressing CHO-K1 cells); conditions: CHO-K1 cells expressing human CD73, 150 μM AMP, 4 hours of incubation; read-out: CHO-K1 CELL VARIANT: CD73 IC50
T2 construct: expressed in transfected cells
T2 sequence (P21589 27-549): T1 sequence (P21589 27-549)
Experimental: Determine Inhibitor Activity Against CD73 in Cell Based Assay
CD73 expressing CHO-K1 cell clones were generated upon stable transfection of a plasmid expressing human CD73 under the control of CMV promoter. Cells were selected in Ham's F-12K (Kaighn's) media supplemented with 10% fetal bovine serum and 1 mg/ml G418 at 37° C. in a humidified incubator supplied with 5% CO2. The assays were performed as follows. Cells were seeded in a 96 well plate in 50 μL of culture media at a density of 1×10^4 per well. Compound at a maximal concentration of 5 mM was serially diluted 1:3 in DMSO for a total of 8 point titration. A 2 μL aliquot of each dilution point was added to 248 μL culture media and 25 µL was added to each well, providing 10 μM compound at the maximum concentration point. AMP was diluted in culture media and 25 μL was added to each well with a final concentration of 150 μM. 4 wells containing 0.2% DMSO treated cells and AMP served as high controls and 4 wells containing media only with 0.2% DMSO and AMP served as low controls. After 4 hours of incubation, 20 μL of the supernatant was transferred to a 384 well plate. AMP level in supernatant was measured indirectly by adding 5 μL of CellTiter-Glo® 2.0 reagent and 5 μL of ATP with a final concentration of 1 μM. Following incubation of plate at room temperature for 30 minutes, luminescent signal was read on a Tecan plate reader. The percentage inhibition at individual concentrations relative to high and low controls was calculated. The data were analyzed by using nonlinear regression to generate IC50 values.

| Structure (SMILES) | IC50 [1] [µM] | IC50 (human CD73) [µM] |
| --- | --- | --- |
| O=C(NC1CCC1)N[C@@H]1CCN(c2cn[nH]c(=O)c2Cl)C1 [P-0085, (R)-1-(1-(5-chloro-6-oxo-1,6-dihydropyridazin-4-yl)pyrrolidin-3-yl)-3-cyclobutylurea] | 0.001 to 10 | 10 to 100 |
| O=C(NC1CCS(=O)(=O)CC1)N[C@@H]1CCN(c2cn[nH]c(=O)c2Cl)C1 [P-0086, (R)-1-(1-(5-chloro-6-oxo-1,6-dihydropyridazin-4-yl)pyrrolidin-3-yl)-3-(1,1-dioxidotetrahydro-2H-thiopyran-4-yl)urea] | 0.001 to 10 | 10 to 100 |
| O=C(CO)NC1CCC(NC(=O)N[C@@H]2CCN(c3cn[nH]c(=O)c3Cl)C2)CC1 (stereo partly drawn) [P-0088, (R)-N-(4-(3-(1-(5-chloro-6-oxo-1,6-dihydropyridazin-4-yl)pyrrolidin-3-yl)ureido)cyclohexyl)-2-hydroxyacetamide] | 0.001 to 10 | 10 to 100 |
| CC(C)(C)OC(=O)N1CCC(NC(=O)O[C@@H]2CCN(c3cn[nH]c(=O)c3Cl)C2)CC1 [P-0089, tert-butyl (R)-4-((((1-(5-chloro-6-oxo-1,6-dihydropyridazin-4-yl)pyrrolidin-3-yl)oxy)carbonyl)amino) piperidine-1-carboxylate] | 0.001 to 10 | 0.001 to 10 |
| CC(=O)N1CCC(NC(=O)O[C@@H]2CCN(c3cn[nH]c(=O)c3Cl)C2)CC1 [P-0090, (R)-1-(5-chloro-6-oxo-1,6-dihydropyridazin-4-yl)pyrrolidin-3-yl (1-acetylpiperidin-4-yl)carbamate] | 0.001 to 10 | 0.001 to 10 |
| CS(=O)(=O)NC1CCC(NC(=O)N[C@@H]2CCN(c3cn[nH]c(=O)c3Cl)C2)CC1 (stereo partly drawn) [P-0091, (R)-N-(4-(3-(1-(5-chloro-6-oxo-1,6-dihydropyridazin-4-yl)pyrrolidin-3-yl)ureido)cyclohexyl) methanesulfonamide] | 0.001 to 10 | 0.001 to 10 |
| O=C(NC1CC1)O[C@@H]1CCN(c2cn[nH]c(=O)c2Cl)C1 [P-0092, (R)-1-(5-chloro-6-oxo-1,6-dihydropyridazin-4-yl)pyrrolidin-3-yl cyclopropylcarbamate] | 0.001 to 10 | 0.001 to 10 |
| O=C(Nc1ccccc1)O[C@@H]1CCN(c2cn[nH]c(=O)c2Cl)C1 [P-0093, (R)-1-(5-chloro-6-oxo-1,6-dihydropyridazin-4-yl)pyrrolidin-3-yl phenylcarbamate] | 0.001 to 10 | 0.001 to 10 |
| O=C(Nc1ccc(Cl)cc1)O[C@@H]1CCN(c2cn[nH]c(=O)c2Cl)C1 [P-0094, (R)-1-(5-chloro-6-oxo-1,6-dihydropyridazin-4-yl)pyrrolidin-3-yl (4-chlorophenyl)carbamate] | 0.001 to 10 | 10 to 100 |
| O=C(NCC1CCCC1)O[C@@H]1CCN(c2cn[nH]c(=O)c2Cl)C1 [P-0095, (R)-1-(5-chloro-6-oxo-1,6-dihydropyridazin-4-yl)pyrrolidin-3-yl (cyclopentylmethyl)carbamate] | 0.001 to 10 | 0.001 to 10 |
| O=C(NCC(F)(F)F)O[C@@H]1CCN(c2cn[nH]c(=O)c2Cl)C1 [P-0096, (R)-1-(5-chloro-6-oxo-1,6-dihydropyridazin-4-yl)pyrrolidin-3-yl (2,2,2-trifluoroethyl)carbamate] | 0.001 to 10 | 0.001 to 10 |
| O=C(NC1CCOCC1)O[C@@H]1CCN(c2cn[nH]c(=O)c2Cl)C1 [P-0097, (R)-1-(5-chloro-6-oxo-1,6-dihydropyridazin-4-yl)pyrrolidin-3-yl (tetrahydro-2H-pyran-4-yl)carbamate] | 0.001 to 10 | 0.001 to 10 |
| CN(C(=O)O[C@@H]1CCN(c2cn[nH]c(=O)c2Cl)C1)C1CCCCC1 [P-0099, (R)-1-(5-chloro-6-oxo-1,6-dihydropyridazin-4-yl)pyrrolidin-3-yl cyclohexyl(methyl)carbamate] | 0.001 to 10 | 10 to 100 |
| O=C(NCc1ccccc1)O[C@@H]1CCN(c2cn[nH]c(=O)c2Cl)C1 [P-0100, (R)-1-(5-chloro-6-oxo-1,6-dihydropyridazin-4-yl)pyrrolidin-3-yl benzylcarbamate] | 0.001 to 10 | 10 to 100 |
| O=C(Nc1cccc(Cl)c1)O[C@@H]1CCN(c2cn[nH]c(=O)c2Cl)C1 [P-0101, (R)-1-(5-chloro-6-oxo-1,6-dihydropyridazin-4-yl)pyrrolidin-3-yl (3-chlorophenyl)carbamate] | 0.001 to 10 | 0.001 to 10 |
| CCOC(=O)N1CCC(NC(=O)O[C@@H]2CCN(c3cn[nH]c(=O)c3Cl)C2)CC1 [P-0102, ethyl (R)-4-((((1-(5-chloro-6-oxo-1,6-dihydropyridazin-4-yl)pyrrolidin-3-yl)oxy)carbonyl)amino) piperidine-1-carboxylate] | 0.001 to 10 | 0.001 to 10 |
| O=C(N[C@@H]1CCN(c2cn[nH]c(=O)c2Cl)C1)N[C@@H]1CCN(c2cn[nH]c(=O)c2Cl)C1 [P-0103, 1,3-bis((R)-1-(5-chloro-6-oxo-1,6-dihydropyridazin-4-yl)pyrrolidin-3-yl)urea] | 0.001 to 10 | 10 to 100 |
| O=C(NC1CC(F)(F)C1)O[C@@H]1CCN(c2cn[nH]c(=O)c2Cl)C1 [P-0104, (R)-1-(5-chloro-6-oxo-1,6-dihydropyridazin-4-yl)pyrrolidin-3-yl (3,3-difluorocyclobutyl)carbamate] | 0.001 to 10 | 0.001 to 10 |
| O=C(NC1CCN(C(=O)CO)CC1)O[C@@H]1CCN(c2cn[nH]c(=O)c2Cl)C1 [P-0105, (R)-1-(5-chloro-6-oxo-1,6-dihydropyridazin-4-yl)pyrrolidin-3-yl (1-(2-hydroxyacetyl)piperidin-4-yl)carbamate] | 0.001 to 10 | 0.001 to 10 |
| O=C(NC1CCC(F)(F)CC1)O[C@@H]1CCN(c2cn[nH]c(=O)c2Cl)C1 [P-0106, (R)-1-(5-chloro-6-oxo-1,6-dihydropyridazin-4-yl)pyrrolidin-3-yl (4,4-difluorocyclohexyl)carbamate] | 0.001 to 10 | 0.001 to 10 |
| O=C(N[C@H]1CCOC1)O[C@@H]1CCN(c2cn[nH]c(=O)c2Cl)C1 [P-0107, (R)-1-(5-chloro-6-oxo-1,6-dihydropyridazin-4-yl)pyrrolidin-3-yl ((S)-tetrahydrofuran-3-yl)carbamate] | 0.001 to 10 | 0.001 to 10 |
| O=C(N[C@@H]1CCOC1)O[C@@H]1CCN(c2cn[nH]c(=O)c2Cl)C1 [P-0108, (R)-1-(5-chloro-6-oxo-1,6-dihydropyridazin-4-yl)pyrrolidin-3-yl ((R)-tetrahydrofuran-3-yl)carbamate] | 0.001 to 10 | 0.001 to 10 |
| C[C@H]1CC[C@H](NC(=O)O[C@@H]2CCN(c3cn[nH]c(=O)c3Cl)C2)CC1 [P-0109, (R)-1-(5-chloro-6-oxo-1,6-dihydropyridazin-4-yl)pyrrolidin-3-yl ((1r,4R)-4-methylcyclohexyl)carbamate] | 0.001 to 10 | 0.001 to 10 |
| C[C@H]1CC[C@@H](NC(=O)O[C@@H]2CCN(c3cn[nH]c(=O)c3Cl)C2)CC1 [P-0110, (R)-1-(5-chloro-6-oxo-1,6-dihydropyridazin-4-yl)pyrrolidin-3-yl ((1s,4S)-4-methylcyclohexyl)carbamate] | 0.001 to 10 | 0.001 to 10 |
| O=C(NC1C2CC3CC(C2)CC1C3)O[C@@H]1CCN(c2cn[nH]c(=O)c2Cl)C1 (stereo partly drawn) [P-0111, (R)-1-(5-chloro-6-oxo-1,6-dihydropyridazin-4-yl)pyrrolidin-3-yl adamantan-2-ylcarbamate] | 0.001 to 10 | 0.001 to 10 |
| O=C(NC1CCC(F)(F)C1)O[C@@H]1CCN(c2cn[nH]c(=O)c2Cl)C1 (stereo partly drawn) [P-0112, (R)-1-(5-chloro-6-oxo-1,6-dihydropyridazin-4-yl)pyrrolidin-3-yl (3,3-difluorocyclopentyl)carbamate] | 0.001 to 10 | 0.001 to 10 |
| CC1(NC(=O)O[C@@H]2CCN(c3cn[nH]c(=O)c3Cl)C2)CCOC1 (stereo partly drawn) [P-0113, (R)-1-(5-chloro-6-oxo-1,6-dihydropyridazin-4-yl)pyrrolidin-3-yl (3-methyltetrahydrofuran-3-yl)carbamate] | 0.001 to 10 | 0.001 to 10 |

Source: patent US12509444B2, “Compounds and methods for CD73 modulation and indications therefor” (Plexxikon Inc., priority 2019, dated 2025)
